Source: patent US12390456B2, “Pridopidine for treating Huntington's disease” (PRILENIA NEUROTHERAPEUTICS LTD., priority 2013, dated 2025)
Read-outs that look alike come from different tables or passages of the source.

Legend:
patients with HD [1] = conditions: 26 weeks; 67.5 mg, 90 mg and 112.5 mg bid
Description: The model includes the following fixed effects: categorical week in study by treatment interaction, center, neuroleptic use or no use, and baseline UHDRS-TMS score. The unstructured covariance matrix for repeated observations within patients is used.

patients with HD [2] = conditions: 26 weeks; 67.5 mg, 90 mg and 112.5 mg bid; remark: listed apart in the source
Description: The Modified Physical Performance Test (mPPT) is used instead of the Physical Performance Test (PPT). The Walk-12 scale in used instead of the Multiple Sclerosis Walking Scale (MSWS).

patients with HD [3] = conditions: 12 weeks; 67.5 mg, 90 mg and 112.5 mg bid
Method: The primary efficacy variable and endpoint for this study is change from baseline in the UHDRS-TMS (defined as the sum of all UHDRS motor domains ratings) at Week 12.
The change from baseline in TMS is analyzed using a Repeated Measures model (SAS® MIXED procedure with REPEATED sub-command). The model includes the following fixed effects: categorical week in trial by treatment interaction, center, neuroleptic use or no use and baseline TMS score. The unstructured covariance matrix for repeated observations within patients is used.

patients with HD [4] = tested on: patients with HD
Method: Study ACR16C007 explored the efficacy of 44 mg pridopidine once daily (qd) in 58 patients.

patients with HD [5] = conditions: cited from earlier work

CCCN1CCC(c2cccc(S(C)(=O)=O)c2)CC1 [pridopidine, 4-[3-(methylsulfonyl)phenyl]-1-propyl-piperidine]
changes from baseline in UHDRS-TMS (patients with HD [1]): Statistically significant changes
changes from baseline in UHDRS-TMS (patients with HD [2]): Statistically significant changes
changes from baseline in TMS (patients with HD [3]): Statistically significant changes
effect on mMS (patients with HD [4]; 45 mg bid, HART and MermaiHD): did not reach the pre-specified significance criteria
improvement in UHDRS-TMS relative to placebo (patients with HD [4]; 45 mg bid, MermaiHD and HART): approximately 3 points
findings on the TMS (patients with HD [4]; HART and MermaiHD): statistically significant findings
efficacy in treating motor symptoms in HD (mMS and TMS) (patients with HD [4]; HART study, 10, 22.5 and 45 mg bid, 12 weeks): dose-dependent efficacy

COc1cc2c(cc1OC)C1CC(=O)C(CC(C)C)CN1CC2 (stereo not drawn) [tetrabenazine]
effect on motor components other than chorea (patients with HD [5]; in vivo): no significant effect
improvement on the UHDRS-TMS (patients with HD [5]; p=0.075, 45 to 47 points at baseline): 3.3 points
